From PubChem BioAssay (NCI)
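Dose response: 5 concentrations. Exposure: 48 h. Format: 96-well plates. Endpoint: linear interpolation; highest concentration if not reached. Abbreviation: GI50, concentration required for 50% inhibition of growth. TGI: concentration producing complete growth inhibition.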

Experiments:
Experiment in all cases: DTP human tumour cell line panel, 48 h
DU-145 prostate = test system: DU-145 prostate
HOP-18 NSCLC = test system: HOP-18 NSCLC
KM20L2 colon = test system: KM20L2 colon
M19-MEL melanoma = test system: M19-MEL melanoma
NCI/ADR-RES ovarian = test system: NCI/ADR-RES ovarian
SK-MEL-2 melanoma = test system: SK-MEL-2 melanoma
SNB-78 CNS = test system: SNB-78 CNS
T-47D breast = test system: T-47D breast
TK-10 renal = test system: TK-10 renal
MCF7 breast = test system: MCF7 breast

SMILES | TGI (DU-145 prostate) [µM] | GI50 (HOP-18 NSCLC) [mM] | TGI (HOP-18 NSCLC) [µM] | TGI (KM20L2 colon) [µM] | GI50 (M19-MEL melanoma) [mM] | TGI (M19-MEL melanoma) [µM] | TGI (NCI/ADR-RES ovarian) [µM] | TGI (SK-MEL-2 melanoma) [µM] | GI50 (SNB-78 CNS) [µM] | TGI (SNB-78 CNS) [µM] | TGI (T-47D breast) [µM] | TGI (TK-10 renal) [µM] | TGI (MCF7 breast) [µM]
CC1C(=O)C(C)C(c2ccccc2)N(N=O)C1c1ccccc1 (stereo not given) | 567 | > 1 | > 1000 | > 1000 | > 1 | > 1000 | 867 | 623 | 220 | > 766 | 311 | 640 | 
CCOC(=O)C(=O)Nc1c(C)cccc1C |  |  | > 100 | > 100 |  | > 100 |  | > 100 |  | > 100 |  | > 100 | 
COc1cc([C@@H]2c3cc4c(cc3[C@@H](NC(=O)c3ccccc3)C3COC(=O)[C@@H]32)OCO4)cc(OC)c1O (stereo not given in full) |  |  | > 100 | 12.8 |  | 24.7 |  | 57.3 |  | > 100 |  | 92.5 | 
COc1ccc2oc3cccc(NCCN(C)C)c3c(=O)c2c1 |  |  | 24 | 22 |  | 29.9 |  | 30.2 |  | 36 |  | 28.2 | 
COc1cc(/C=C/C(=O)c2sc(Nc3ccccc3)nc2C)ccc1O |  |  | > 100 | > 100 |  | > 100 |  | > 100 |  | > 100 |  | > 100 | 
CCCCCCCCCc1cc(=O)c2ccc(O)cc2o1 |  |  | > 100 | > 100 |  | > 100 |  | > 100 |  | > 100 |  | 91.3 | 
Cc1cc(=O)oc2cc3c(cc12)Oc1ccccc1O3 |  |  | > 100 | > 100 |  | > 100 |  | > 100 |  | > 100 |  | > 100 | 
CCCCCCCCCCCCCCCC(=O)OCC1OC(n2c(O)c(N=NC(N)=S)c3ccc([N+](=O)[O-])cc32)C(OC(C)=O)C1OC(C)=O (stereo not given) |  |  | > 100 | > 100 |  | > 100 |  | > 100 |  | > 100 |  | > 100 | 
COc1ccc(NC(=O)c2cc(OC)c(OC)c(OC)c2)cc1 |  |  | > 100 | > 100 |  | > 100 |  | 65.2 |  | > 100 |  | > 100 | 
O=C(CN1CCN(c2ccccc2)CC1)N1CCc2c([nH]c3ccccc23)C1c1cccnc1 (stereo not given) |  |  | > 100 | > 100 |  | > 100 |  | > 100 |  | > 100 |  | > 45.7 | 
CCCCCCCCCCCCCC(=O)CBr | 33.7 |  | 29.3 | 26 |  | 23.5 |  | 26.3 |  | 30.9 | 18.7 | 29.7 | 30.2
